{"source": "patent US20070009597A1", "about": "“Active substance combination comprising a compound with npy receptor affinity and a compound with 5-ht6 receptor affinity” (LABORATORIOS DEL DR. ESTEVE S.A., priority 2003, published 2007)", "key": {"[1]": {"target": "T1, recombinant human 5HT6 receptor (Homo sapiens, UniProt P50406)", "T1 construct": "purchased Receptor Biology; host or cells: HEK-293", "T1 sequence (P50406 whole entry)": "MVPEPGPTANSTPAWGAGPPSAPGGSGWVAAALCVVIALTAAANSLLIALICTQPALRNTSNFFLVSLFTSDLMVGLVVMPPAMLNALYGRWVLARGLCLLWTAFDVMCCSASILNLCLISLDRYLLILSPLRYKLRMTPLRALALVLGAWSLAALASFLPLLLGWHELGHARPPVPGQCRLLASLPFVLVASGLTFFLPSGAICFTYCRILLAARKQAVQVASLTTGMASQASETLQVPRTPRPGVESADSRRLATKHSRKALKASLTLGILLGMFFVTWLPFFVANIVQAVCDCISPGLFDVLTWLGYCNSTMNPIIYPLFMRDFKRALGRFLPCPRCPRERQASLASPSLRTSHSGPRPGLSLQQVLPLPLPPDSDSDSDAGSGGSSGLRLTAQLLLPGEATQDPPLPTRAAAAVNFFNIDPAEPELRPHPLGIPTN", "assay": "Binding to the 5HT6 serotonin receptor ([3H]-LSD, HEK-293 cell membranes)", "settings": "for inhibition at 1 µM: read-out: % Inhibition 10^−6 M", "method": "Binding to the 5HT6 Serotonin Receptor\nThe respective part of the literature descriptions is incorporated here by reference and form part of the disclosure. […] The assays are carried out in triplicate."}, "[2]": {"settings": "10^−6 M, table 1f, compounds of general formula (If)"}, "[3]": {"settings": "table 1f, compounds of general formula (If)"}, "[4]": {"settings": "10^−6 M, table 1d, compounds of general formula (Id)"}, "[5]": {"settings": "table 1e, compounds of general formula (Ie)"}, "[6]": {"settings": "10^−6 M, table 1c, compounds of general formula (Ic)"}, "[7]": {"settings": "table 1c, compounds of general formula (Ic)"}}, "note": "Where a name gives a salt, the structure may show the parent alone. Read-outs that look alike come from different tables or passages of the source.", "data": [{"smiles": "O=C(CN1CCC(Nc2ccccc2CO)CC1)Nc1ccc2c(c1)CCC2=O", "values": [{"measurement": "melting point", "result": "138 to 140", "unit": "°C"}]}, {"smiles": "CN(C)CCn1ccc2ccc(NS(=O)(=O)c3cc(Cl)cc(Cl)c3)cc21", "note": "[Example 8f, N-[1-(2-Dimethylaminoethyl)-1H-indol-6-yl]-3,5-dichlorobenzenesulfonamide]", "values": [{"measurement": "inhibition at 1 µM", "setting": "[1]; [2]", "result": 86.9, "unit": "%"}, {"measurement": "Ki", "setting": "[1]; [3]", "result": 0.159, "unit": "µM"}]}, {"smiles": "CN(C)CCn1ccc2ccc(NS(=O)(=O)c3cccc4ccccc34)cc21", "note": "[Example 3f, N-[1-(2-Dimethylaminoethyl)-1H-indol-6-yl]-naphthalene-1-sulfonamide]", "values": [{"measurement": "% Inhibition 10^−6 M", "setting": "[1]; [2]", "result": 95.3, "unit": "%"}, {"measurement": "Ki", "setting": "[1]; [3]", "result": 0.0198, "unit": "µM"}]}, {"smiles": "CN(C)CCn1ccc2ccc(NS(=O)(=O)c3ccc(-c4ccccc4)cc3)cc21", "note": "[Example 5f, N-[1-(2-Dimethylaminoethyl)-1H-indol-6-yl]-4-phenylbenzenesulfonamide]", "values": [{"measurement": "inhibition at 1 µM", "setting": "[1]; [2]", "result": 93.4, "unit": "%"}]}, {"smiles": "CN(C)CCn1ccc2c(NS(=O)(=O)c3ccc(-c4ccccc4)cc3)cccc21", "note": "[Example 4d, N-[1-(2-dimethylaminoethyl)-1H-indole-4-yl]-4-phenylbenzenesulfonamide]", "values": [{"measurement": "inhibition at 1 µM", "setting": "[1]; [4]", "result": 46.6, "unit": "%"}]}, {"smiles": "CN(C)CCn1ccc2cc(NS(=O)(=O)c3c(Cl)nc4sccn34)ccc21", "note": "[Example 11e, N-[1-(2-dimethylaminoethyl)-1H-indole-5-yl]-6-chloroimidazo[2,1-b]thiazole-5-sulfonamide]", "values": [{"measurement": "Ki", "setting": "[1]; [5]", "result": 0.00189, "unit": "µM"}]}, {"smiles": "CN(C)CCn1ccc2c(NS(=O)(=O)c3ccc(Oc4ccccc4)cc3)cccc21", "note": "[Example 6d, N-[1-(2-dimethylaminoethyl)-1H-indole-4-yl]-4-phenoxybenzenesulfonamide]", "values": [{"measurement": "% Inhibition 10^−6 M", "setting": "[1]; [4]", "result": 55.8, "unit": "%"}]}, {"smiles": "CN1CCC(c2c[nH]c3ccc(NS(=O)(=O)c4cccc5cccnc45)cc23)CC1", "note": "[Example 16c, N-[3-(1-methylpiperidin-4-yl)-1H-indol-5-yl]quinoline-8-sulphonamide]", "values": [{"measurement": "% Inhibition 10^−6 M", "setting": "[1]; [6]", "result": "94.4 ± 8.6", "unit": "%"}, {"measurement": "Ki", "setting": "[1]; [7]", "result": 0.0212, "unit": "µM"}]}, {"smiles": "CN(C)CCn1ccc2ccc(NS(=O)(=O)CCc3cccc4ccccc34)cc21", "note": "[Example 6f, N-[1-(2-Dimethylaminoethyl)-1H-indol-6-yl]-2-(naphthalene-1-yl)-ethanesulfonamide]", "values": [{"measurement": "inhibition at 1 µM", "setting": "[1]; [2]", "result": 94.5, "unit": "%"}, {"measurement": "Ki", "setting": "[1]; [3]", "result": 0.0745, "unit": "µM"}]}, {"smiles": "CCN(CC)CCc1c[nH]c2ccc(NS(=O)(=O)c3cccc4ccccc34)cc12", "note": "[Example 3c, Hydrochloride N-[3-(2-diethylaminoethyl)-1H-indol-5-yl]naphthalene-1-sulphonamide]", "values": [{"measurement": "Ki", "setting": "[1]; [7]", "result": 0.0035, "unit": "µM"}]}, {"smiles": "Cc1cccc2c1N(C1CCN(S(=O)(=O)c3cccc4ccccc34)CC1)C(=O)OC2", "note": "[Example 4b, 8-Methyl-1-[1-(naphthyl-1-sulfonyl)-piperidine-4-yl]-1,4-dihydro-benzo[d][1,3]oxazine-2-one]", "values": [{"measurement": "Ki", "setting": "[1]", "result": 0.246, "unit": "µM"}]}, {"smiles": "CN1CCC(c2c[nH]c3ccc(NS(=O)(=O)c4cccc5ccccc45)cc23)CC1", "note": "[Example 13c, N-[3-(1-methylpiperidin-4-yl)-1H-indol-5-yl]naphthalene-1-sulphonamide hydrochloride]", "values": [{"measurement": "Ki", "setting": "[1]", "result": 0.0047, "unit": "µM"}]}, {"smiles": "Cc1c(S(=O)(=O)Nc2ccc3ccn(CCN(C)C)c3c2)sc2ccc(Cl)cc12", "note": "[Example 1f, N-[1-(2-Dimethylaminoethyl)-1H-indol-6-yl]-5-chloro-3-methylbenzo[b]thiophene-2-sulfonamide]", "values": [{"measurement": "inhibition at 1 µM", "setting": "[1]; [2]", "result": 98.6, "unit": "%"}, {"measurement": "Ki", "setting": "[1]; [3]", "result": 0.0902, "unit": "µM"}]}, {"smiles": "O=C1OCc2ccccc2N1C1CCN(S(=O)(=O)c2cccc3ccccc23)CC1", "note": "[Example 1b, 1-[1-(Naphthyl-1-sulfonyl)-piperidine-4-yl]-1,4-dihydro-benzo[d][1,3]oxazine-2-one]", "values": [{"measurement": "Ki", "setting": "[1]", "result": 0.0517, "unit": "µM"}, {"measurement": "inhibition at 1 µM", "setting": "[1]", "result": "98.1 ± 4", "unit": "%"}]}, {"smiles": "CN(C)CCn1ccc2cc(NS(=O)(=O)c3cccc4ccccc34)ccc21", "note": "[Example 3e, N-[1-(2-dimethylaminoethyl)-1H-indole-5-yl]-naphthalene-1-sulfonamide]", "values": [{"measurement": "Ki", "setting": "[1]; [5]", "result": 0.0942, "unit": "µM"}]}, {"smiles": "CN(C)CCn1ccc2ccc(NS(=O)(=O)c3ccc4ccccc4c3)cc21", "note": "[Example 2f, N-[1-(2-Dimethylaminoethyl)-1H-indol-6-yl]-naphthalene-2-sulfonamide]", "values": [{"measurement": "Ki", "setting": "[1]", "result": 0.0412, "unit": "µM"}, {"measurement": "inhibition at 1 µM", "setting": "[1]", "result": 97.7, "unit": "%"}]}, {"smiles": "Cc1cccc2c1N(C1CCN(S(=O)(=O)c3cccc4c(N(C)C)cccc34)CC1)C(=O)OC2", "note": "[Example 7b, 1-[1-(5-Dimethylamino-naphthyl-1-sulfonyl)-piperidine-4-yl]-8-Methyl-1,4-dihydro-benzo[d][1,3]oxazine-2-one]", "values": [{"measurement": "inhibition at 1 µM", "setting": "[1]; 10^−6 M, table 2b, compounds of general formula (Ib)", "result": 88, "unit": "%"}]}, {"smiles": "CN1CCC(c2c[nH]c3ccc(NS(=O)(=O)c4ccc(-c5ccccc5)cc4)cc23)CC1", "note": "[Example 15c, N-[3-(1-methylpiperidin-4-yl)-1H-indol-5-yl]-4-phenylbenzenesulphonamide]", "values": [{"measurement": "% Inhibition 10^−6 M", "setting": "[1]; [6]", "result": "97.4 ± 0.8", "unit": "%"}, {"measurement": "Ki", "setting": "[1]; [7]", "result": 0.0068, "unit": "µM"}]}, {"smiles": "CN(C)CCn1ccc2c(NS(=O)(=O)c3cccc4ccccc34)cccc21", "note": "[Example 3d, N-[1-(2-dimethylaminoethyl)-1H-indole-4-yl]-naphtalene-1-sulfonamide]", "values": [{"measurement": "% Inhibition 10^−6 M", "setting": "[1]; [4]", "result": 94.8, "unit": "%"}]}, {"smiles": "CN(C)CCn1ccc2cc(NS(=O)(=O)c3cccc4nsnc34)ccc21", "note": "[Example 10e, N-[1-(2-dimethylaminoethyl)-1H-indole-5-yl]-benzo[1,2,5]thiadiazole-4-sulfonamide]", "values": [{"measurement": "melting point", "result": "166 to 168", "unit": "°C"}]}, {"smiles": "CCN(CC)CCc1c[nH]c2ccc(NS(=O)(=O)c3cc(Cl)cc(Cl)c3)cc12", "note": "[Example 4c, N-[3-(2-diethylaminoethyl)-1H-indol-5-yl]-3,5-dichlorobenzenesulphonamide]", "values": [{"measurement": "Ki", "setting": "[1]; [7]", "result": 0.0093, "unit": "µM"}]}, {"smiles": "O=S(=O)(C1CCCCC1)n1cc(C2=CCN3CCCC3C2)c2cc(F)ccc21", "note": "(stereo not shown) [Example 4h, 1-cyclohexanesulfonyl-5-fluoro-3-(1,2,3,5,8,8a-hexahydro-indolizine-7-yl)-1H-indole]", "values": [{"measurement": "Ki", "setting": "[1]; table 1h, compounds of general formula (Ih)", "result": 0.191, "unit": "µM"}]}, {"smiles": "CCN(CC)CCc1c[nH]c2ccc(NS(=O)(=O)c3ccc(-c4ccccc4)cc3)cc12", "note": "[Example 5c, N-[3-(2-diethylaminoethyl)-1H-indol-5-yl]-4-phenylbenzenesulphonamide]", "values": [{"measurement": "Ki", "setting": "[1]; [7]", "result": 0.001, "unit": "µM"}]}]}
